In paper PMC11802874, “The hypolipidemic effect of MI-883, the combined CAR agonist/ PXR antagonist, in diet-induced hypercholesterolemia model” (Nature Communications, 2025):
Values joined by “and” are separate entries in the source; they are usually repeats but may differ in a detail not shown here. Identical values can stand only once. Like-named read-outs stand apart in the source and are kept apart here.

Tests used:
human PXR = target: T1, human PXR (Homo sapiens, UniProt O75469); experiment: PXR luciferase reporter gene assay (CYP3A4-luc) in HepG2 cells; assay type: cell-based; design: host or cells: HepG2
T1 sequence (O75469 1-434): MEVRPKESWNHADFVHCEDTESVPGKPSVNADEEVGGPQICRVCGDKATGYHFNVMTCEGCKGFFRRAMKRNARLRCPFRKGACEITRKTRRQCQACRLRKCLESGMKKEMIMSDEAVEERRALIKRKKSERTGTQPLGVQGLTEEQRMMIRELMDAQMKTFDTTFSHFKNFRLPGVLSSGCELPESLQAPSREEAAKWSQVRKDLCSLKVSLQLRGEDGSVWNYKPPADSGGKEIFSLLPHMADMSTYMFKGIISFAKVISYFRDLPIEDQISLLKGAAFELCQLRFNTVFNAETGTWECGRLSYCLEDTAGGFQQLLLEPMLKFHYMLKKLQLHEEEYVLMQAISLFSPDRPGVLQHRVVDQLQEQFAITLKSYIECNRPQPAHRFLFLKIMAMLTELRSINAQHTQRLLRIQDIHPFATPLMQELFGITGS
Method: The half maximal effective concentration (EC50) to activate CAR or inhibit PXR (IC50) in the assays was calculated from at least eight points of the dose-response curves using the GraphPad Prism software.

PXR/NCOA1 = target: T2, PXR/NCOA1 (Homo sapiens, UniProt O75469); experiment: Mammalian two-hybrid PXR/coactivator NCOA1 recruitment, HepG2; assay type: cell-based; design: key: firefly/Metridia luciferase activity ratio (normalized)
T2 construct: PXR-LBD (residues 108–434); expressed in transfected cells; host or cells: HepG2
T2 sequence (O75469 108-434): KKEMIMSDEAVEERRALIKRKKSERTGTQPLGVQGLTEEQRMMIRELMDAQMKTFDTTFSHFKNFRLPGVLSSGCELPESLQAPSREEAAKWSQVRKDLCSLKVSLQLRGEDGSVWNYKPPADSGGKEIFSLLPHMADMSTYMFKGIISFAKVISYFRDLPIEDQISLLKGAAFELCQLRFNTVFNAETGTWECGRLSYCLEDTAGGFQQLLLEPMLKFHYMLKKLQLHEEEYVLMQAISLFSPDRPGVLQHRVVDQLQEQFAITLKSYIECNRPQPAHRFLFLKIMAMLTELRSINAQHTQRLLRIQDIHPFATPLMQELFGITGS
Method: The GAL4-dependent pGL4-G5, harboring a pentamer of GAL4 binding sites in front of the E1b promoter was described before.
Transient batch transfection of HepG2 cells was done as described above. […] All transfections included 0.01 µg pMetLuc2control per well for normalization of firefly luciferase reporter activities. After overnight incubation with the transfection mixtures, cells were treated with chemicals in a volume of 100 µl of cell culture medium. […] Firefly luciferase activity was measured in 10 µl of cell lysates, and Metridia luciferase activity was analyzed in 10 µl of medium supernatant, both as described before. Results were normalized by dividing firefly luciferase activity by Metridia luciferase activity measured from the same well. Measurements of samples were repeated several times (n ≥ 3).

Human recombinant CYP2B6 = target: T3, Human recombinant CYP2B6 (Homo sapiens, UniProt P20813); experiment: CYP450-Glo CYP2B6 enzymatic activity assay; assay type: biochemical; conditions: for Inhibition assays, CYP2B6 activity (replicates): log[Agonist]
T3 construct: purchased Promega; host or cells: baculovirus-infected insect cells
T3 sequence (P20813 1-491): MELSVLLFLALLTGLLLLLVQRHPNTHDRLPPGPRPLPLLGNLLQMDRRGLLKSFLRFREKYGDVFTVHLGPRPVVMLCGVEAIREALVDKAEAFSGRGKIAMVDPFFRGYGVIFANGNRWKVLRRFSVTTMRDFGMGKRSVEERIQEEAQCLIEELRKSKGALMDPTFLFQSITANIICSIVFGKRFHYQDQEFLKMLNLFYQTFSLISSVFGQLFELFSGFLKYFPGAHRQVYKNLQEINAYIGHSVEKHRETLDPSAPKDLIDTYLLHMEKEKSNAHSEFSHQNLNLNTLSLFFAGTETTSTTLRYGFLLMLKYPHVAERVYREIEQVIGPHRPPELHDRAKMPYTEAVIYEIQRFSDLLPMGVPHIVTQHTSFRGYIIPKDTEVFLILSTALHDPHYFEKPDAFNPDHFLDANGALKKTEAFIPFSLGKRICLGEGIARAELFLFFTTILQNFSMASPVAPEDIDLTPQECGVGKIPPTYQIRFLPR
Text: Data are presented as means±S.D. from three independent measurements.

hERG potassium channel = hERG potassium channel (Homo sapiens, UniProt Q12809); experiment: Thallium flux FLIPR-based hERG assay; assay type: cell-based
Sequence of hERG potassium channel (Q12809 whole entry): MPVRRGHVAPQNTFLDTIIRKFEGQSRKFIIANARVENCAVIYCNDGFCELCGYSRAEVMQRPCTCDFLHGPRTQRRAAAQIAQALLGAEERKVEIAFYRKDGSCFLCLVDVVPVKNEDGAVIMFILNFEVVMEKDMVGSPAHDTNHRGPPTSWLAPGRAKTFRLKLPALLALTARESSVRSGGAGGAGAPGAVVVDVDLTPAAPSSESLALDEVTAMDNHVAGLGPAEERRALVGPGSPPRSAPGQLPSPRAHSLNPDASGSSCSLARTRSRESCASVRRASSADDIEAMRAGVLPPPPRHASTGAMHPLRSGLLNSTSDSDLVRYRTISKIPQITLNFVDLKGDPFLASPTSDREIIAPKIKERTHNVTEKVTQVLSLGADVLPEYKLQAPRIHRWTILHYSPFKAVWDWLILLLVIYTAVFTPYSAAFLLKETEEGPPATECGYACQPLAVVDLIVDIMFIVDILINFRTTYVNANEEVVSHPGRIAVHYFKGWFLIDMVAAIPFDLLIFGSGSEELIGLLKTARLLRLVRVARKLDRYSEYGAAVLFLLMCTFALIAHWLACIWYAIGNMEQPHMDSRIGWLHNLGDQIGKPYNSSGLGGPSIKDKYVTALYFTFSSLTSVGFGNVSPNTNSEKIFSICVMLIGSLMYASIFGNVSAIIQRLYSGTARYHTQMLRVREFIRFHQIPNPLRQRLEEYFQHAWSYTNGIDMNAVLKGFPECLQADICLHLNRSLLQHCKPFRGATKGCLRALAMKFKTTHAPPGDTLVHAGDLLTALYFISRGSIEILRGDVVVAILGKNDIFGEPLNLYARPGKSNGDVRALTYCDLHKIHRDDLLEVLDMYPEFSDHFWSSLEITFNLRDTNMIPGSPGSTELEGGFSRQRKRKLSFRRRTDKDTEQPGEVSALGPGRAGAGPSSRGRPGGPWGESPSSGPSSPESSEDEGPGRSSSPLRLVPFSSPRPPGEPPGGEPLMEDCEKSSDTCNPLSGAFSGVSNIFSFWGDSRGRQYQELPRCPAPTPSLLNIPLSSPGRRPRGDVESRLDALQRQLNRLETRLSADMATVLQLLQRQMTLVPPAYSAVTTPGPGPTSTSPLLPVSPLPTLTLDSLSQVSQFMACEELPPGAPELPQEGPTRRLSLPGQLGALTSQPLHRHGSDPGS
Text: Thallium flux FLIPR-based assay for the identification of hERG potassium channel inhibition

GRα = GRα (Homo sapiens, UniProt P04150); experiment: Luciferase reporter gene assay GRα, HepG2; conditions: ligand: Dexamethasone 100 nM
Sequence of GRα (P04150 whole entry): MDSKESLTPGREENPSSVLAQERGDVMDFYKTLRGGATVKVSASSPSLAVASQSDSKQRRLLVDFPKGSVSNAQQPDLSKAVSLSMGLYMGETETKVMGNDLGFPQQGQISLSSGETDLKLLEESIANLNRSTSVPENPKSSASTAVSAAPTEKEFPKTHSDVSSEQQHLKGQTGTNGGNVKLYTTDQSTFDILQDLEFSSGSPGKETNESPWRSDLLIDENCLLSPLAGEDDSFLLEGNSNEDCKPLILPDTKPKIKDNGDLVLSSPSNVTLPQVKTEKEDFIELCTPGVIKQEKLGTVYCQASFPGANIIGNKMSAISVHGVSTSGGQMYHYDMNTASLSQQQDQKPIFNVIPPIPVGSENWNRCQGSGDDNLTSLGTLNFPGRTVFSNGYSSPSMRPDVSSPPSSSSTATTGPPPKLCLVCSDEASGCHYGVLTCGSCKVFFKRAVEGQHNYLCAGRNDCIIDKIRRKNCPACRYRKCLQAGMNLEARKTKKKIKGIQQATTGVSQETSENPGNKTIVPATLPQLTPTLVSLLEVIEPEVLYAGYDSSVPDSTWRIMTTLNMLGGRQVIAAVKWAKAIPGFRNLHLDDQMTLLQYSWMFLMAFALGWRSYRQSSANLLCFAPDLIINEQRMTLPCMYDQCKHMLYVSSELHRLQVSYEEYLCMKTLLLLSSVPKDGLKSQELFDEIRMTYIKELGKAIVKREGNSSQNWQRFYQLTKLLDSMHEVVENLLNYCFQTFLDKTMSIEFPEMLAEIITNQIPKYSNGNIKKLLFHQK
Text: Gal4-LBD constructs of tested nuclear receptors have been used together with pGL4.31[luc2P/GAL4UAS/Hygro] luciferase reporter construct and pRL-TK Renilla expression vector (both from Promega, Hercules, USA) in HepG2 cells transfected with Lipofectamine 2000 or 3000 reagents. For GRα and FXR receptors, full-length expression vectors have been used with pGRE-luc or pFXRE-luc luciferase constructs. For the aryl hydrocarbon receptor (AhR), p1A1-luc construct was used with only pRL-TK vector for transfection normalization. A dual reporter assay (Promega, Hercules, USA) was used to analyze both firefly and Renilla luciferase activities.
Gal4-LBD constructs of tested nuclear receptors have been used together with pGL5-luc luciferase reporter construct and pRL-TK Renilla expression vector in HepG2 cells transfected with Lipofectamine 2000 or 3000 reagents. For GRα and FXR receptors, full-length expression vectors have been used with pGRE-luc or pFXRE-luc luciferase constructs. For the aryl hydrocarbon receptor (AhR), p1A1-luc construct was used with only pRL-TK vector for transfection normalization. […] Bars represent means±S.D. (n=3).

Question: How did the IC50 (human PXR; HepG2 cells, read-out: IC50, basal PXR activation) turn out when `NC(=O)c1cc(Cn2cc(-c3c(-c4ccc(Cl)cc4)nc4cc(F)ccn34)nn2)ccc1Cl` [MI-883, 2-chloro-5-((4-(2-(4-chlorophenyl)-7-fluoroimidazo[1,2-a]pyridin-3-yl)-1H-1,2,3-triazol-1-yl)methyl)benzamide] was run?
Answer: The IC50 was 2030 ± 300 nM.

Question: What about the IC50 (human PXR; HepG2 cells, read-out: IC50, rifampicin-induced PXR activation) of the same compound?
Answer: The IC50 was 3600 ± 400 nM.

Question: And the IC50 (human PXR; reply to reviewers, read-out: IC50 for PXR antagonistic activity)?
Answer: The IC50 was 2000 nM.

Question: And the “PXR/NCOA1 two-hybrid activity, replicates” value (PXR/NCOA1; MI-883 5 μM)?
Answer: Its value is 0.25 and 0.27 and 0.49 and 0.53 and 0.45.

Question: What about the “PXR/NCOA1 two-hybrid activity, replicates” value (PXR/NCOA1; RIF + MI-883 5μM) of the same compound?
Answer: Its value is 3.5 and 5.72 and 7.6 and 8.87 and 7.06.

Question: And the “PXR/NCOA1 two-hybrid activity, replicates” value (PXR/NCOA1; RIF + MI-883 10μM)?
Answer: The value was 2.55 and 2.34 and 3.32 and 3.46.

Question: What about the “PXR/NCOA1 two-hybrid activity, replicates” value (PXR/NCOA1; single agent: RIF (10 µM), MI-883 10μM, control ~1) of the same compound?
Answer: Its value is 0.21 and 0.23 and 0.57 and 0.43 and 0.38.

Question: And the “inhibition of CYP2B6 activity” value (Human recombinant CYP2B6)?
Answer: The value was “does not suppress”.

Question: What about the “Inhibition assays, CYP2B6 activity (replicates)” value (“Inhibition assays” for short) (Human recombinant CYP2B6; M 0) of the same compound?
Answer: The value was 129 and 112 and 119.

Question: What about the “Inhibition assays” value (Human recombinant CYP2B6; M 0.5) of the same compound?
Answer: Its value is 112.

Question: What about the “Inhibition assays” value (Human recombinant CYP2B6; M 0.5, listed as MI 883) of the same compound?
Answer: Its value is 104 and 118.

Question: And the “Inhibition assays” value (Human recombinant CYP2B6; M 1)?
Answer: Its value is 114 (2×) and 110.

Question: And the “Inhibition assays” value (Human recombinant CYP2B6; M -0.5)?
Answer: Its value is 102 and 120 and 140.

Question: What about the “Inhibition assays” value (Human recombinant CYP2B6; M -1) of the same compound?
Answer: The value was 98.

Question: What about the “Inhibition assays” value (Human recombinant CYP2B6; M -1, listed as MI 883) of the same compound?
Answer: Its value is 104 and 111.

Question: What about the “Inhibition assays” value (Human recombinant CYP2B6; M -2) of the same compound?
Answer: The value was 100.

Question: And the “Inhibition assays” value (Human recombinant CYP2B6; M -2.5)?
Answer: The value was 100.

Question: And the “Inhibition assays” value (Human recombinant CYP2B6; M -3)?
Answer: Its value is 100.

Question: And the “Inhibition assays” value (Human recombinant CYP2B6; M -3.5)?
Answer: Its value is 100.

Question: And the “Inhibition assays” value (Human recombinant CYP2B6; M -4)?
Answer: Its value is 100.

Question: What about the “Inhibition assays” value (Human recombinant CYP2B6; M -4.5) of the same compound?
Answer: The value was 100.

Question: What about the “hERG IC50” value (hERG potassium channel) of the same compound?
Answer: Its value is “could not be defined”.

Question: And the “hERG assay, inhibition of hERG potassium channel activity” value (hERG potassium channel)?
Answer: The value was “no significant inhibition up to 100 µM”.

Question: What about the “NRs assays: GRa (relative to ctrl, replicates)” value (GRα) of the same compound?
Answer: The value was 0.97 (2×) and 1.03.
